Where two headings read alike, the source gives them in different places.
Columns and labels:
[1] = target: T1, Human cytomegalovirus DNA polymerase (Human cytomegalovirus, UniProt P08546); assay: CMV polymerase assay (AlphaLISA); assay type: biochemical; settings: HCMV polymerase 0.2 nM; 30 min pre-incubation; 60 min at 37° C.; read-out: CMV (IC50)
T1 construct: made in house; host or cells: SF21 insect cells (baculovirus vector)
Method: Human cytomegalovirus and varicella zoster virus DNA polymerases were expressed via baculovirus vector in SF21 cells and purified. Heterodimeric nucleic acid substrate used in the herpesvirus polymerase reactions was generated by annealing a 59-mer template to a 17-mer digoxigenin-labeled primer. Polymerase (HCMV final concentration of 0.2 nM; VZV final concentration of 0.4 nM) was combined with an inhibitor compound or DMSO in assay buffer (10 mM HEPES, pH 7.5, 25 mM KCl, 25 mM NaCl, 5 mM MgCl2, 5% glycerol, 0.67 mg/ml bovine serum albumin, and 1 mM tris(2-carboxyethyl)phosphine), and this mixture was pre-incubated for 30 minutes at room temperature in 384-well microtiter plates. The polymerization reaction was initiated by the addition of template/primer substrate (final concentration: 1.6 nM), and dNTPs (final concentration: 24 nM dCTP, 24 nMdGTP, 16 nM dATP, 16 nM dTTP, and 0.8 nM biotin-dUTP). After 60 min incubation at 37° C., reactions were terminated with quench buffer (25 mM HEPES pH 7.5, 100 mM NaCl, 0.25% Tween-20, 12 mM EDTA, and 1 mg/ml bovine serum albumin). Incorporation of biotinylated UTP was detected with 2.5-5 ug/ml anti-DIG AlphaLISA acceptor beads and 5-10 ug/ml streptavidin AlphaLISA donor beads (PerkinElmer). Compound effects were normalized to the window defined by the controls (DMSO only and pre-quenched wells) and were fit using a 4-parameter algorithm to report an IC50.

HCMV Strain AD169 = assay: Viral qPCR assay, HCMV; assay type: cell-based, Human cytomegalovirus; settings: MRC-5 cells, 0.05-0.1 pfu/cell, growth media or 50% fetal bovine serum, viral genome copies by qPCR, read-out: CMV Cell (EC50)
Method: (§1) MRC5 cells, Vero cells, and MeWo cells were obtained from ATCC, and were maintained at 37° C./5% CO2/90% relative humidity in Minimal Essential Medium with 10% fetal bovine serum, […] L-glutamine, 100 units/ml penicillin and 100 ug/ml streptomycin. Assay plates were prepared by dispensing compounds dissolved in DMSO into wells of 384 well collagen-coated plates using an ECHO acoustic dispenser. Each compound was tested in a 10-point, serial 3-fold dilution. Controls included uninfected cells and infected cells treated only with DMSO. Assays were initiated by mixing selected cells, in suspension, with virus, and dispensing 50 μl/well infected cells to pre-plated compounds. Plates were incubated at 37° C./5% CO2/90% relative humidity for ˜72 hrs to permit genomic replication, and infected cells were lysed by the addition of an equal volume of lysis buffer (10 mM Tris-HCl, pH8, 50 mM KCl, 2 mM MgCl2, 0.45% NP-40, 0.45% Tween-20, and 100 μg/ml proteinase K). An aliquot of the lysate was transferred to a 384-well PCR plate and incubated at 56° C. for 1 hour and then at 95° C. for 10 min. Levels of a viral gene and of the cellular control, PPIA (Thermo Fisher Assay ID=Hs04194521_s1), were measured in separate 10 ul qPCR assays using TaqMan® Gene Expression Master Mix (Applied Biosystems), and an 7900HT Fast Real-Time PCR System with 384-Well Block Module. 7-point, serial 10-fold dilutions of a plasmid standard were run on each plate to generate a standard curve, and genome copies numbers were calculated by plotting experimental Ct onto linear regression of the standard curve. Viral genome copy numbers were normalized by cellular control copy number, and compound effects were normalized to the window defined by the controls. Calculated % effects were fit using a 4-parameter algorithm, and EC50 was reported.
(§2) MRC5 cells, Vero cells, and MeWo cells were obtained from ATCC, and were maintained at 37° C./5% CO2/90% relative humidity in Minimal Essential Medium with 10% fetal bovine serum, […] L-glutamine, 100 units/ml penicillin and 100 ug/ml streptomycin. Assay plates were prepared by dispensing compounds dissolved in DMSO into wells of 384 well collagen-coated plates using an ECHO acoustic dispenser. Each compound was tested in a 10-point, serial 3-fold dilution. Controls included uninfected cells and infected cells treated only with DMSO. Assays were initiated by mixing selected cells, in suspension, with virus, and dispensing 50 μl/well infected cells to pre-plated compounds. Plates were incubated at 37° C./5% CO2/90% relative humidity for ˜72 hrs to permit genomic replication, and infected cells were lysed by the addition of an equal volume of lysis buffer (10 mM Tris-HCl, pH 8, 50 mM KCl, 2 mM MgC12, 0.45% NP-40, 0.45% Tween-20, and 100 μg/ml proteinase K). An aliquot of the lysate was transferred to a 384-well PCR plate and incubated at 56° C. for 1 hour and then at 95° C. for 10 min. Levels of a viral gene were measured in 10 ul qPCR assays using TaqMan® Gene Expression Master Mix (Applied Biosystems), and an 7900HT Fast Real-Time PCR System with 384-Well Block Module. 7-point, serial 10-fold dilutions of a plasmid standard were run on each plate to generate a standard curve, and genome copies numbers were calculated by plotting experimental Ct onto linear regression of the standard curve. Compound effects on viral genome copy number were normalized to the window defined by the controls. Calculated % effects were fit using a 4-parameter algorithm, and ECso was reported.
HCMV: Strain AD169 Street was assayed in MRC-5 cells and was used at 0.05-0.1 pfu/cell. The assays were performed in either growth media or in the same media with 50% fetal bovine serum. Primer-probe set was Thermo Fisher Assay ID=AIFATFK.

VZV = assay: Viral qPCR assay, VZV; assay type: cell-based, varicella zoster virus; settings: MeWo or MRC5 cells, 0.04-0.1 pfu/cell, growth medium, viral genome copies by qPCR
Method: as §1, §2
VZV: Strain Street was maintained as an infected cell stock in MRC-5 cells. It was assayed in MeWo or MRC5 cells and was used at 0.04-0.1 pfu/cell. The assays were performed in growth medium. Primer-probe set was Thermo Fisher Assay ID=AIPAEXQ.

HSV-1 Strain F = assay: Viral qPCR assay, HSV-1; assay type: cell-based, Herpes Simplex Virus type 1; settings: Vero or MRC5 cells, 0.0005-0.004 pfu/cell, growth medium, viral genome copies by qPCR, read-out: HSV1 Cell (EC50)
Method: as §1, §2
HSV-1: Strain F […] was assayed in Vero or MRC5 cells and was used at 0.0005-0.004 pfu/cell in growth medium. Primer-probe set was Thermo Fisher Assay ID=AIBJZIB

[2] = Human betaherpesvirus 5, AD169, MRC5, 72 h

T1 sequence (P08546 whole entry): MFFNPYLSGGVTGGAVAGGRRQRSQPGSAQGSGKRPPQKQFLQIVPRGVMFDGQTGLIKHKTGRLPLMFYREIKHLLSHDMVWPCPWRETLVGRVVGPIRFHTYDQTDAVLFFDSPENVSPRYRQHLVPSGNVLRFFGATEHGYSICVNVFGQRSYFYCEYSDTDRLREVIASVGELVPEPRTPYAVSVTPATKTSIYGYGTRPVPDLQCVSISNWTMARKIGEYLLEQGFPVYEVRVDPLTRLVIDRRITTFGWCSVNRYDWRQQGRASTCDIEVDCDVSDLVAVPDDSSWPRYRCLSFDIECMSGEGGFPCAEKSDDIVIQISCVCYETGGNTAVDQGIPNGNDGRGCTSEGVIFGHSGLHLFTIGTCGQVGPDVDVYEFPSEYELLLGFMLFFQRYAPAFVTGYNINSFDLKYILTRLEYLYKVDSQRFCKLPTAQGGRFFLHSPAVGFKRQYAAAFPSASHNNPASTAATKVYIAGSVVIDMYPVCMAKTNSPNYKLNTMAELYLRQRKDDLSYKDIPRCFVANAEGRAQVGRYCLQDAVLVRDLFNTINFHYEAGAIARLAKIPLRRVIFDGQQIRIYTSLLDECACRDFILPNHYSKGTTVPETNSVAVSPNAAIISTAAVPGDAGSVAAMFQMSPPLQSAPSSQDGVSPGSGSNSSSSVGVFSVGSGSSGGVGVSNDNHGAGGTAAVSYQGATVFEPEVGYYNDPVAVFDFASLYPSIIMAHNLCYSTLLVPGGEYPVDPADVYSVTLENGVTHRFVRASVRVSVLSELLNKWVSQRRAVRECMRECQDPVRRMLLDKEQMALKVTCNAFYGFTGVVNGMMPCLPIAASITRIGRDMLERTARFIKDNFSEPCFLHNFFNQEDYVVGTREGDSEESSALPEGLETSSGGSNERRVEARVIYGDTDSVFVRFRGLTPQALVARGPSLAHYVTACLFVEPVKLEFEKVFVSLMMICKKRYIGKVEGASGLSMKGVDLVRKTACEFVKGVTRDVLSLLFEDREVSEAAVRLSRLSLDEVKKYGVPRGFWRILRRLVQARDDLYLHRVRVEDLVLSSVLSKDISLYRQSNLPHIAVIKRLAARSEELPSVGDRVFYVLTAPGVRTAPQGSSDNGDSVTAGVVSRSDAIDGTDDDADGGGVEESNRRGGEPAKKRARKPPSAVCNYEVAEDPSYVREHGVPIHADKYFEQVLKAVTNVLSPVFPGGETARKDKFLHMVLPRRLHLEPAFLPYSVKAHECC

Structure (SMILES)	IC50 [1] [nM]	EC50 (HCMV Strain AD169; [2]) [nM]	EC50 (VZV; Human alphaherpesvirus 3, 72 h) [nM]	EC50 (HSV-1 Strain F; Human alphaherpesvirus 1, 72 h) [nM]	EC50 (HCMV Strain AD169; ~72 hrs) [nM]	EC50 (VZV; ~72 hrs) [nM]	EC50 (HSV-1 Strain F; ~72 hrs) [nM]
CCN(CC)CCOc1nc(-c2cnn(C(F)F)c2)c(O[C@H]2CCN3C(=O)OC[C@@H]3C2)cc1C(=O)NCc1ccc(Cl)cc1 [Compound 96]	2.72	75.9	400	148			
COc1nc(-c2ccn(C)c2)c(O[C@H]2CCN3C(=O)OC[C@@H]3C2)cc1C(=O)NCc1ccc(Cl)cc1 [Compound 30]	14.5	462	187	202			
CC(O)COc1nc(-c2cnn(C(F)F)c2)c(O[C@H]2CCN3C(=O)OC[C@@H]3C2)cc1C(=O)NCc1ccc(Cl)cc1 (stereo partly shown) [Compound 93]	4.62	204	250	59.1			
CCn1cc(-c2nc(OC)c(C(=O)NCc3ccc(Cl)cc3)cc2O[C@H]2CCN3C(=O)OC[C@@H]3C2)cn1 [Compound 31]	5.13	175	102	103			
COc1nc(-c2ncco2)c(O[C@H]2CCN3C(=O)OC[C@@H]3C2)cc1C(=O)N[C@@H](C)c1ccc(Cl)cc1 [Compound 64]	69.3	911	1560	597			
COc1nc(-c2cncc(CO)c2)c(O[C@H]2CCN3C(=O)OC[C@@H]3C2)cc1C(=O)NCc1ccc(Cl)cc1 [Compound 44]	20	326	585	263			
COc1nc(CC(C)(C)O)c(O[C@H]2CCN3C(=O)OC[C@@H]3C2)cc1C(=O)NCc1ccc(Cl)cc1 [Compound 73]	20.9	339	828	575			
COc1nc(-c2cnn(C(C)(C)C)c2)c(O[C@H]2CCN3C(=O)OC[C@@H]3C2)cc1C(=O)NCc1ccc(Cl)cc1 [Compound 11]	20.3	653	1270	456			
CN(C)CCCOc1nc(-c2cnn(C(F)F)c2)c(O[C@H]2CCN3C(=O)OC[C@@H]3C2)cc1C(=O)NCc1ccc(Cl)cc1 [Compound 95]	1.46	151	463	141			
COc1nc(-c2ccc(=O)[nH]c2)c(O[C@H]2CCN3C(=O)OC[C@@H]3C2)cc1C(=O)NCc1ccc(Cl)cc1 [Compound 47]	4.87	1300	2320	654			
COc1nc(-c2cnc(N)nc2)c(O[C@H]2CCN3C(=O)OC[C@@H]3C2)cc1C(=O)NCc1ccc(Cl)cc1 [Compound 45]	2.3	111	141	50			
COc1nc(-c2cnn(CCO)c2)c(O[C@H]2CCN3C(=O)OC[C@@H]3C2)cc1C(=O)NCc1ccc(Cl)cc1 [Compound 32]	0.705	103	106	52			
COc1nc(-c2ccc3[nH]ccc3c2)c(O[C@H]2CCN3C(=O)OC[C@@H]3C2)cc1C(=O)NCc1ccc(Cl)cc1 [Compound 39]	81.5	886	1360	658			
COc1nc(C2CC(O)C2)c(O[C@H]2CCN3C(=O)OC[C@@H]3C2)cc1C(=O)NCc1ccc(Cl)cc1 (single isomer, unassigned) [Compound 74]	31.6	356	709	271			
COc1nc(-c2cnn(C(F)F)c2)c(O[C@H]2CCN3C(=O)OC[C@@H]3C2)cc1C(=O)NCc1cc(F)c(Cl)c(F)c1 [Compound 57]	6.13	538	364	207			
COc1nc(C2CC2O)c(O[C@H]2CCN3C(=O)OC[C@@H]3C2)cc1C(=O)NCc1ccc(Cl)cc1 (single isomer, unassigned) [Compound 79]	28.7				337	463	518
COc1nc(-c2cnc3[nH]ccc3c2)c(O[C@H]2CCN3C(=O)OC[C@@H]3C2)cc1C(=O)NCc1ccc(Cl)cc1 [Compound 41]	17	606	418	494			
COc1ccc(-c2nc(OC)c(C(=O)NCc3ccc(Cl)cc3)cc2O[C@H]2CCN3C(=O)OC[C@@H]3C2)cn1 [Compound 43]	22.3	422	298	169			
COCCn1cc(-c2nc(OC)c(C(=O)NCc3ccc(Cl)cc3)cc2O[C@H]2CCN3C(=O)OC[C@@H]3C2)cn1 [Compound 25]	6.77	159	186	146			
COc1nc(C2CC3(CC(O)C3)C2)c(O[C@H]2CCN3C(=O)OC[C@@H]3C2)cc1C(=O)NCc1ccc(Cl)cc1 (stereo partly shown) [Compound 76]	32.1	519	778	293			
COc1csc(-c2nc(OC)c(C(=O)NCc3ccc(Cl)cc3)cc2O[C@H]2CCN3C(=O)OC[C@@H]3C2)c1 [Compound 34]	8.26	421	1920	260			
Cc1nsc(-c2nc(OCC(C)(C)O)c(C(=O)NCc3ccc(Cl)cc3)cc2O[C@H]2CCN3C(=O)OC[C@@H]3C2)n1 [Compound 87]	5.13	108	207	140			

Source: patent US20240083910A1, “AMIDO-SUBSTITUTED PYRIDYL COMPOUNDS AND METHODS OF USE THEREOF FOR THE TREATMENT OF HERPESVIRUSES” (Merck Sharp & Dohme LLC, priority 2020, published 2024)
